According to patent US12459914B2, “Compounds and compositions for the treatment of tumors” (FONDAZIONE ISTITUTO ITALIANO DI TECNOLOGIA, priority 2019, dated 2025):
Where two headings read alike, the source gives them in different places.

Assays:
[1] = Pharmacokinetic studies in mice, plasma levels by LC/MS-MS; type: in vivo, C57B6/J mice; details: for half-life: read-out: t1/2 (calc)
Experimental: Male C57B6/J mice, 8 weeks old were used (Charles River). All procedures were performed in accordance with the Ethical Guidelines of European Communities Council (Directive 2010/63/EU of 22 Sep. 2010) and accepted by the Italian Ministry of Health. All efforts were made to minimize animal suffering and to use the minimal number of animals required to produce reliable results, according to the “3Rs concept”. Animals were group-housed in ventilated cages and had free access to food and water. They were maintained under a 12-hour light/dark cycle (lights on at 8:00 am) at controlled temperature (21° C.±1° C.) and relative humidity (55%±10%).
Compound d.12 was administered orally (PO), intraperitoneally (IP) and intravenously (IV) to C57B6/J male mice at 2 mg/kg/10 ml, 20 mg/kg/10 ml and 2 mg/kg/5 ml, respectively. Vehicle was composed by PEG400/Tween 80/Saline solution at 10/10/80% in volume, respectively for PO and IV administration. For IP administration, the same vehicle was used with the addition of 10% DMSO in final volume. Three animals per dose were treated. Blood samples at 0, 15, 30, 60, 120, 240, and 480 min after administration were collected for PO and IP arms. Blood samples at 0, 5, 15, 30, 60, 120 and 240 min after administration were collected for IV arm. Plasma was separated from blood by centrifugation for 15 min at 1500 rpm a 4° C., collected in a eppendorf tube and frozen (−80° C.). Control animals treated with vehicle only were also included in the experimental protocol.
Plasma samples were centrifuged at 21.100×g for 15 min at 4° C. An aliquot of each plasma sample was extracted (1:3) with cold CH3CN containing 200 nM of d.48 as internal standard being a close analogue of the parent compound. A calibration curve was prepared in naïve mouse plasma over a 1 nM-10 μM range. Three quality control samples were prepared by spiking the parent compound in naïve mouse plasma to 20, 200 and 2000 nM as final concentrations. The calibrators and quality control samples were extracted (1:3) with the same extraction solution as the plasma samples. The plasma samples, calibrators and quality control samples were centrifuged at 3.270×g for 15 min at 4° C. The supernatants were further diluted (1:1) with H2O, and analyzed by LC/MS-MS on a Waters ACQUITY UPLC/MS TQD system consisting of a Triple Quadrupole Detector (TQD) Mass Spectrometer equipped with an Electrospray Ionization interface and a Photodiode Array e, Detector from Waters Inc. (Milford, MA, USA). Electrospray ionization was applied in positive mode. Compound-dependent parameters as MRM transitions and collision energy were developed for the parent compound and the internal standard. The analyses were run on an ACQUITY UPLC BEH C18 (50×2.1 mmID, particle size 1.7 μm) with a VanGuard BEH C18 pre-column (5×2.1 mmID, particle size 1.7 μm) at 40° C., using H2O+0.1% HCOOH (A) and CH3CN+0.1% HCOOH (B) as mobile phase at 0.5 mL/min. A linear gradient was applied starting at 40% B with an initial hold for 0.2 min, then 40-100% B in 2 min, followed by a hold for 0.1 min at 100% B. All samples (plasma samples, calibrators and quality controls) were quantified by MRM peak area response factor in order to determine the levels of the parent compound in plasma. The plasma concentrations versus time were plotted and the profiles were fitted using PK Solutions Excel Application (Summit Research Service, USA) in order to determine the pharmacokinetic parameters. The results are reported in Tables 2 and 3 and in FIGS. 1, 2 and 3.

[2] = test system: Homologous recombination (HR) in BxPC3 cells; assay: Homologous recombination assay (HR); type: cell-based; details: Homo sapiens, BXPC-3, read-out: HR inhibition: IC50
Experimental: Homologous recombination (HR) was assessed by using a commercially available assay (Norgen). This assay is based on cell co-transfection with two plasmids that, upon cells entering, recombinate. The efficiency of HR can be assessed by real time PCR, using primer mixtures included in the assay kit. Different primer mixtures allow differentiation between the original plasmid backbones and their recombination product.
BxPC3 cells (2×10^3 per well) were seeded in a 24-well plate and allowed to adhere overnight. Co-transfection with the two plasmids was performed in Lipofectamine 2000 (Invitrogen) for 5 h, according to the manufacturer's instructions. During transfection cells were exposed at different doses of BRCA2-Rad51 disruptors, dissolved in RPMI without serum in the presence of 0.6% DMSO.
After washing with PBS, cells were harvested, and DNA was isolated using QIAamp® DNA Mini Kit (Qiagen). Sample concentration was measured using an ONDA Nano Genius photometer.
The thermal cycler (CFX96 ™ Real Time System, BioRad) was programmed as follows: initial denaturation 95° C. for 3 min then 95° C. for 15 sec., 61° C. for 30 sec., 72° C. for 1 min and repeated for 40 cycles. Melt curve analysis was done. Samples were run in triplicate, in 10 μl reaction volume containing 25 ng of template.
In each DNA sample from control and treated cultures, the ΔCt between the recombination product and the backbone plasmids was calculated. HR efficiency was evaluated from the 2^−ΔΔ^Ct value obtained by comparing treated vs control samples.

[3] = male, C57B6/J, mouse, plasma, mice, IP 20 mg/kg
[4] = male, C57B6/J, mouse, plasma, mice, IV 2 mg/kg
[5] = male, C57B6/J, mouse, plasma, mice, PO 2 mg/kg
[6] = male, C57B6/J, mouse plasma, IV 2 mg/kg, read-out: Average conc.
[7] = male, C57B6/J, mouse plasma, PO 2 mg/kg, read-out: Average conc.

AUC [1, 3]: 9280 ng·h/mL
Cmax [1, 3]: 5300 ng/mL
Tmax [1, 3]: 30 min
half-life [1, 3]: 175 min
AUC [1, 4]: 899 ng·h/mL
Cmax [1, 4]: 973 ng/mL
Tmax [1, 4]: 5 min
clearance ([1]; male, C57B6/J, mouse, plasma, mice, IV 2 mg/kg, read-out: CL (calc)): 33 mL/min/kg
Vd ([1]; male, C57B6/J, mouse, plasma, mice, IV 2 mg/kg, read-out: VD (calc)): 2.2 L/kg
half-life [1, 4]: 47 min
AUC [1, 5]: 100 ng·h/mL
Cmax [1, 5]: 76 ng/mL
Tmax [1, 5]: 30 min
half-life [1, 5]: 281 min
concentration at 5 min ([1]; male, C57B6/J, mouse plasma, IV 2 mg/kg, 5 min, read-out: Average conc.): 973 ng/mL
concentration at 15 min [1, 6]: 622 ng/mL
concentration at 30 min [1, 6]: 515 ng/mL
concentration at 60 min [1, 6]: 337 ng/mL
concentration at 120 min [1, 6]: 146 ng/mL
concentration at 240 min [1, 6]: 23 ng/mL
concentration at 0 min ([1]; male, C57B6/J, mouse plasma, PO 2 mg/kg, 0 min, read-out: Average conc.): 0 ng/mL
concentration at 15 min [1, 7]: 42 ng/mL
concentration at 30 min [1, 7]: 76 ng/mL
concentration at 60 min [1, 7]: 30 ng/mL
concentration at 120 min [1, 7]: 21 ng/mL
concentration at 240 min [1, 7]: 7 ng/mL
concentration at 480 min ([1]; male, C57B6/J, mouse plasma, PO 2 mg/kg, 480 min, read-out: Average conc.): 4 ng/mL
F ([1]; mice, 2 mg/kg): 11%
CL (calc) ([1]; mice, IP 20 mg/kg): 27 mL/min/kg
VD (calc) ([1]; mice, IP 20 mg/kg): 6.701 L/kg
CL (calc) ([1]; mice, PO 2 mg/kg): 222 mL/min/kg
VD (calc) ([1]; mice, PO 2 mg/kg): 90.009 L/kg
IC50 [2]: 18.4 µM
Structure (SMILES): CCC(=O)N1N=C(c2c(-c3ccccc3)c3cc(Cl)ccc3[nH]c2=O)CC1c1ccc(OC)cc1 (stereo not drawn) [d.12, 6-chloro-3-[3-(4-methoxyphenyl)-2-propanoyl-3,4-dihydropyrazol-5-yl]-4-phenyl-1H-quinolin-2-one]
